Results as given in PMC10600247, “Impact of C- and N-terminal protection on the stability, metal chelation and antimicrobial properties of calcitermin” (Scientific Reports, 2023).
Residues, ends and D or L forms follow the SMILES beside them.

Key:
E. coli (ATCC 25922) = assay: In vitro anti-E. coli CFU assay; assay type: cell-based, Escherichia coli; conditions: pH 5.4; for mean CFU number ± S.D.: per 0.1 mL
Protocol: (§1) All microbes were grown at 37 °C in Tryptic Soy Broth (TSB; Biolife, Milan, Italy) or Tryptic Soy Agar plates (TSA, Biolife, Milan, Italy). Peptides were tested at a final concentration C = 0.128, 0.064, 0.032 mg/mL, in the presence or absence of ZnCl2 or CuCl2, at a M:L molar ratio 0.9:1. Briefly, all the microbes were expanded in TSB at 37 °C under agitation for 12 h and then sub-cultured by 1:10 dilution in TSB under the same conditions until reaching OD600nm = 0.3–0.4, as measured by spectrophotometric reading using a GENESYS 10S UV–Vis spectrophotometer (Thermo Scientific, Milan, Italy), corresponding to 0.9–1.2 × 10^7 colony forming units (CFU) per mL, 1.5–2 × 10^8 CFU/mL and 2.4–3.2 × 10^8 CFU/mL, for C. albicans, S. aureus and E. coli respectively. The cultures were then centrifuged at 4500 rpm for 10 min in a SL 8 centrifuge (TX-150 Rotor) (Thermo Scientific, Milan, Italy), and the cellular pellets were washed with PBS pH 5.4. Pelletized cultures were then suspended in 10 mL of PBS pH 5.4, then the suspensions were diluted to a final concentration of 10^4 CFU/mL. Aliquots of 100 µl (corresponding to 10^3 CFU) were seeded in each well of a 96-wells plate. 3 µl of TSB at pH 5.4 were added to each well to obtain a final 1.5% TSB concentration in the culture medium. Peptides were serially diluted in PBS pH 5.4 to C = 0.257, 0.128, and 0.064 mg/mL. ZnCl2 and CuCl2 solutions were added where requested to obtain a M:L ratio 0.9:1. 100 µl of the prepared peptides ± ZnCl2/CuCl2 solutions were then added to each well, obtaining the final 0.128, 0.064 and 0.032 mg/mL peptide concentrations in a total 0.2 mL volume. PBS alone and PBS + ZnCl2/CuCl2 solutions were included as controls. The plates were incubated at 37 °C on a platform rocker with slow stirring for 3 and 24 h. At the end of the incubation times, 100 µl aliquots were taken from each sample and diluted in PBS pH 5.4 to be seeded on TSA plates. Specifically, aliquots were diluted 1:10 at 3 h, and 1:200, 1:100,000 and 1:10 at 24 h, for C. albicans, E. coli, and S. aureus respectively. After incubation for 24 h at 37 °C, grown CFUs were enumerated. Samples were assayed in triplicate in two independent experiments. Student’s t-test was used for the evaluation of significance in biological tests; a p value ≤ 0.05 was considered significant.

C. albicans (ATCC 10231) = assay: In vitro antifungal CFU assay; assay type: cell-based, Candida albicans; conditions: pH 5.4; for mean CFU number ± S.D.: per 0.1 mL
Protocol: as §1

in vitro = conditions: human, pH 7.4
Protocol: Each peptide (C = 1·10^–4 M) and metal complex (metal:ligand ratio 1:1) was incubated in a sample containing 1 ml of human plasma (obtained as a pool of 40 individuals from the University Hospital of Ferrara) and 1 ml of ammonium acetate buffer (pH 7.4) at 37 °C. L-phenylalaninol is added as internal standard. At regular time intervals, 200 μl aliquots were taken and enzymatic reaction was blocked by adding 300 μl of HClO4 0.5 M. The sample was then centrifugated for 6 min at 14,000 × g. The supernatant was then filtered and analysed by HPLC. The analytical column was an Agilent Poroshell 120 SB-C18 (4.6 × 100 mm, 2.7 μm, pore size 120 Å). Flow rate = 0.5 ml/min, mobile phase H2O + 0.1% v/v TFA, linear gradient from 0 to 60% of acetonitrile + 0.1% v/v TFA over 30 min for the elution of peptides, temperature 25 °C, detection wavelength 210 nm. […] Informed consent was obtained from all subjects and/or their legal guardian(s) prior to the donation of blood samples. All experimental protocols were approved by the National Research and Research Transversal Processes boards at University of Ferrara. All methods were carried out in accordance with relevant guidelines and regulations.

[1] = peptide 0.032 mg/mL + CuCl2 (0.9:1), 3 h
[2] = peptide 0.032 mg/mL + CuCl2 (0.9:1), 24 h
[3] = peptide 0.032 mg/mL + ZnCl2 (0.9:1), 3 h
[4] = peptide 0.032 mg/mL + ZnCl2 (0.9:1), 24 h
[5] = peptide 0.064 mg/mL + CuCl2 (0.9:1), 3 h
[6] = peptide 0.064 mg/mL + CuCl2 (0.9:1), 24 h
[7] = peptide 0.064 mg/mL + ZnCl2 (0.9:1), 3 h
[8] = peptide 0.064 mg/mL + ZnCl2 (0.9:1), 24 h
[9] = peptide 0.128 mg/mL + CuCl2 (0.9:1), 3 h
[10] = peptide 0.128 mg/mL + CuCl2 (0.9:1), 24 h
[11] = peptide 0.128 mg/mL + ZnCl2 (0.9:1), 3 h
[12] = peptide 0.128 mg/mL + ZnCl2 (0.9:1), 24 h
[13] = peptide alone 0.032 mg/mL, 24 h
[14] = peptide alone 0.064 mg/mL, 24 h
[15] = peptide alone 0.128 mg/mL, 24 h

Compound: CC[C@H](C)[C@H](NC(=O)[C@H](C)NC(=O)[C@@H](NC(C)=O)C(C)C)C(=O)N[C@@H](C)C(=O)N[C@@H](CC(C)C)C(=O)N[C@@H](CCCCN)C(=O)N[C@@H](C)C(=O)N[C@@H](C)C(=O)N[C@@H](Cc1c[nH]cn1)C(=O)N[C@@H](Cc1ccc(O)cc1)C(=O)N[C@@H](Cc1c[nH]cn1)C(=O)N[C@H](C(=O)N[C@@H](Cc1c[nH]cn1)C(=O)N[C@@H](CCCCN)C(=O)N[C@@H](CCC(=O)O)C(=O)O)[C@@H](C)O [L1, Ac-VAIALKAAHYHTHKE] (Ac-VAIALKAAHYHTHKE-OH)
- mean CFU number ± S.D. (E. coli (ATCC 25922); [1]): 372 ± 16 CFU
- CFU decrease/increase with respect to untreated controls (E. coli (ATCC 25922); [2]): -15%
- mean CFU number ± S.D. (E. coli (ATCC 25922); [2]): 147 ± 6 CFU
- mean CFU number ± S.D. (E. coli (ATCC 25922); [3]): 343 ± 13 CFU
- CFU decrease/increase with respect to untreated controls (E. coli (ATCC 25922); [4]): -6%
- mean CFU number ± S.D. (E. coli (ATCC 25922); [4]): 163 ± 18 CFU
- mean CFU number ± S.D. (E. coli (ATCC 25922); [5]): 385 ± 24 CFU
- mean CFU number ± S.D. (E. coli (ATCC 25922); [6]): 58 ± 8 CFU
- mean CFU number ± S.D. (E. coli (ATCC 25922); [7]): 198 ± 7 CFU
- CFU decrease/increase with respect to untreated controls (E. coli (ATCC 25922); [8]): -13%
- mean CFU number ± S.D. (E. coli (ATCC 25922); [8]): 149 ± 7 CFU
- mean CFU number ± S.D. (E. coli (ATCC 25922); [9]): 151 ± 30 CFU
- mean CFU number ± S.D. (E. coli (ATCC 25922); [10]): 17 ± 18 CFU
- mean CFU number ± S.D. (E. coli (ATCC 25922); [11]): 45 ± 18 CFU
- CFU decrease/increase with respect to untreated controls (E. coli (ATCC 25922); [12]): +8%
- mean CFU number ± S.D. (E. coli (ATCC 25922); [12]): 187 ± 12 CFU
- mean CFU number ± S.D. (E. coli (ATCC 25922); peptide alone 0.032 mg/mL, 3 h): 749 ± 47 CFU
- CFU decrease/increase with respect to untreated controls (E. coli (ATCC 25922); [13]): +1%
- mean CFU number ± S.D. (E. coli (ATCC 25922); [13]): 174 ± 6 CFU
- mean CFU number ± S.D. (E. coli (ATCC 25922); peptide alone 0.064 mg/mL, 3 h): 634 ± 10 CFU
- CFU decrease/increase with respect to untreated controls (E. coli (ATCC 25922); [14]): -15%
- mean CFU number ± S.D. (E. coli (ATCC 25922); [14]): 146 ± 17 CFU
- mean CFU number ± S.D. (E. coli (ATCC 25922); peptide alone 0.128 mg/mL, 3 h): 625 ± 76 CFU
- mean CFU number ± S.D. (E. coli (ATCC 25922); [15]): 140 ± 11 CFU
- CFU decrease/increase with respect to untreated controls (C. albicans (ATCC 10231); [1]): -27.3%
- mean CFU number ± S.D. (C. albicans (ATCC 10231); [1]): 40 ± 28 CFU
- mean CFU number ± S.D. (C. albicans (ATCC 10231); [2]): 1,908 ± 160 CFU
- CFU decrease/increase with respect to untreated controls (C. albicans (ATCC 10231); [3]): +16%
- mean CFU number ± S.D. (C. albicans (ATCC 10231); [3]): 67 ± 4 CFU
- CFU decrease/increase with respect to untreated controls (C. albicans (ATCC 10231); [4]): -2%
- mean CFU number ± S.D. (C. albicans (ATCC 10231); [4]): 2,230 ± 326 CFU
- CFU decrease/increase with respect to untreated controls (C. albicans (ATCC 10231); [5]): -27.3%
- mean CFU number ± S.D. (C. albicans (ATCC 10231); [5]): 40 ± 24 CFU
- mean CFU number ± S.D. (C. albicans (ATCC 10231); [6]): 1,576 ± 112 CFU
- CFU decrease/increase with respect to untreated controls (C. albicans (ATCC 10231); [7]): +60%
- mean CFU number ± S.D. (C. albicans (ATCC 10231); [7]): 88 ± 7 CFU
- mean CFU number ± S.D. (C. albicans (ATCC 10231); [8]): 1,619 ± 165 CFU
- CFU decrease/increase with respect to untreated controls (C. albicans (ATCC 10231); [9]): -27.3%
- mean CFU number ± S.D. (C. albicans (ATCC 10231); [9]): 40 ± 11 CFU
- mean CFU number ± S.D. (C. albicans (ATCC 10231); [10]): 1,428 ± 24 CFU
- CFU decrease/increase with respect to untreated controls (C. albicans (ATCC 10231); [11]): +31%
- mean CFU number ± S.D. (C. albicans (ATCC 10231); [11]): 72 ± 10 CFU
- mean CFU number ± S.D. (C. albicans (ATCC 10231); [12]): 265 ± 108 CFU
- mean CFU number ± S.D. (C. albicans (ATCC 10231); peptide alone 0.032 mg/mL, 3 h): 40 ± 10 CFU
- mean CFU number ± S.D. (C. albicans (ATCC 10231); [13]): 1,789 ± 225 CFU
- CFU decrease/increase with respect to untreated controls (C. albicans (ATCC 10231); peptide alone 0.064 mg/mL, 3 h): -1.8%
- mean CFU number ± S.D. (C. albicans (ATCC 10231); peptide alone 0.064 mg/mL, 3 h): 54 ± 6 CFU
- mean CFU number ± S.D. (C. albicans (ATCC 10231); [14]): 1,807 ± 433 CFU
- CFU decrease/increase with respect to untreated controls (C. albicans (ATCC 10231); peptide alone 0.128 mg/mL, 3 h): -51%
- mean CFU number ± S.D. (C. albicans (ATCC 10231); peptide alone 0.128 mg/mL, 3 h): 27 ± 0.6 CFU
- mean CFU number ± S.D. (C. albicans (ATCC 10231); [15]): 1,666 ± 229 CFU
- half-life (in vitro): 2.25 h
